These results are taken from publication PMC9313597, “In Vitro and in Silico Analysis of Phytochemicals From Fallopia dentatoalata as Dual Functional Cholinesterase Inhibitors for the Treatment of Alzheimer’s Disease” (Frontiers in Pharmacology, 2022).

“And” between values parts separate entries of the source, which are not always exact repeats. Equal values may be shown once. Read-outs that look alike come from different tables or passages of the source.

In general, inhibition refers to the relative decrease from the control value, in per cent. For orientation: IC50 means the concentration that inhibits the measured activity by half. A low value points to greater potency.

For assay [1], the target named is T1, AChE (Electrophorus electricus, UniProt O42275).
T1 construct: purchased Sigma-Aldrich Co. (St. Louis, Missouri, United States) C3389
In words: biochemical. As to conditions: for inhibition at 100 µM: read-out: Inhibition of AChE; for IC50: 0.05 Unit/mL enzyme, pH 7.4, 37°C, 30 min, triplicate, mean ± SEM. On the procedure:
(§1) All HPLC solvents were purchased from Guangdong Guanghua Sci-Tech Co. Ltd. (Guangzhou, China). […] All chemicals and solvents used in column chromatography and assays were acquired from commercial sources.
(§2) 25 µL of 1 mM DTNB [5,5′-dithiobis (2-nitrobenzoic acide)] and 25 µL of 5 mM substrate, acetylthiocholine iodide (A5751), and butyrylthiocholine iodide (B3253) were sequentially added to wells in the plate. […] The inhibition ratio was calculated using the equation: Inhibitory activity(%)=[(ΔC-ΔI)/ΔC]×100 Where C and I are the intensity of control and inhibitor after 20 min, respectively.
(§3) Compounds were first evaluated in vitro for their inhibitory activities against AChE and BuChE at a concentration of 100 µM.

Assay [2] concerns the target T2, BuChE (Equus caballus, UniProt P81908).
T2 construct: purchased Sigma-Aldrich Co. (St. Louis, Missouri, United States) C1057
Nature of the assay: biochemical. As to conditions: for inhibition at 100 µM: read-out: Inhibition of BuChE; for IC50: 0.05 Unit/mL enzyme, pH 7.4, 37°C, 30 min, triplicate, mean ± SEM. In kind it is biochemical. On the procedure:
as §1, §2, §3

In assay [3] the target is T1, AChE. Nature of the assay: Enzyme kinetics on AChE (Lineweaver-Burk and Dixon plots). As to conditions: for Ki: Dixon plots, read-out: AChE K i; for AChE Inhibition type: Lineweaver-Burk plots, compound 2–90 µM, substrate 0.07–5 mM. In kind it is biochemical. As for the experimental part:
(§4) […]. This was achieved by performing enzyme kinetic studies on AChE/BuChE in the presence of different concentrations of compounds 30–34 (2–90 µM) at various steady-state substrate concentrations (0.07–5 mM). The interactions between compounds and cholinesterase are represented using classic double-reciprocal Lineweaver-Burk and Dixon plots ([Lineweaver and Burk, 1934]; [Dixon, 1953]). […] The resulting linear equations for compounds 30–34 with BuChE led to a series of lines with different slopes that crossed at similar intercepts on the vertical axis and different points on the horizontal axis.

Assay [4] addresses T2, BuChE. In words: Enzyme kinetics on BuChE (Lineweaver-Burk and Dixon plots). It is filed as biochemical. As to conditions: for Ki: Dixon plots, read-out: BuChE K i; for BuChE Inhibition type: Lineweaver-Burk plots, compound 2–90 µM, substrate 0.07–5 mM. As for the experimental part:
as §4

T2 sequence (P81908 whole entry): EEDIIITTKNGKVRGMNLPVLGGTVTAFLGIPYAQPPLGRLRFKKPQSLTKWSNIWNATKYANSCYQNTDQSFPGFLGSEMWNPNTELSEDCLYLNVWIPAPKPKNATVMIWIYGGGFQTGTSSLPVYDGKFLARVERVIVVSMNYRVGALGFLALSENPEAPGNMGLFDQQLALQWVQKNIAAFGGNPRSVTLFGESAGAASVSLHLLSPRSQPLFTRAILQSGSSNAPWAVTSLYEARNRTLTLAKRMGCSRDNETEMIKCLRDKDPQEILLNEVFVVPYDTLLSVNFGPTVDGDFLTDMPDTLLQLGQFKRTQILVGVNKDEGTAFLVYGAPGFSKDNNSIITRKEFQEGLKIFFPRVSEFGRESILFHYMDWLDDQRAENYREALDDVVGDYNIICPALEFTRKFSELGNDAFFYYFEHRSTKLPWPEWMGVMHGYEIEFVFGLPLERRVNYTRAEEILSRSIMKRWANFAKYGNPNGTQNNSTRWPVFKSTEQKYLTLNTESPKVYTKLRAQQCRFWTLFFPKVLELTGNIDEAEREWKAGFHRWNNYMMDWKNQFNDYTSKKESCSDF
T1 sequence (O42275 24-633): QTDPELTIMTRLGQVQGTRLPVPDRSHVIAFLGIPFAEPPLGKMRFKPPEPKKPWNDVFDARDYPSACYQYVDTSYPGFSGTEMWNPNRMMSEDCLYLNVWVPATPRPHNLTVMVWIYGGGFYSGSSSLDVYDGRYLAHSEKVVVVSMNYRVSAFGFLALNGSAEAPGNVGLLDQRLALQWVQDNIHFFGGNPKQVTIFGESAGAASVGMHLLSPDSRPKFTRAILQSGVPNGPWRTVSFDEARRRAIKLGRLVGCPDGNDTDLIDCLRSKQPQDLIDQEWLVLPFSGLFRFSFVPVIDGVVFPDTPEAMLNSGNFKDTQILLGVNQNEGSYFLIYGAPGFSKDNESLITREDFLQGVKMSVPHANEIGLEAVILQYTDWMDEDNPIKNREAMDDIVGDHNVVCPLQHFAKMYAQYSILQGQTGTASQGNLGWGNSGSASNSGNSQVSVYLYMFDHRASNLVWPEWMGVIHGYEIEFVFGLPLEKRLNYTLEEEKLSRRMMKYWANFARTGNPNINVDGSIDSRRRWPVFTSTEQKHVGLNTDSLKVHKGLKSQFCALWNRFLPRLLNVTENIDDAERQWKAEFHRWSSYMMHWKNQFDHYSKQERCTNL

Turning to `Oc1cc(O)c2c(c1)O[C@H](c1ccc(O)c(O)c1)[C@H](O)C2` [Compound 19, (-)-epicatechin], the inhibition at 100 µM at AChE [1] (at 100 µM) and on BuChE [2] (at 100 µM) was more than 50% in each case.
Regarding `O=c1cc(-c2ccc(O)cc2)oc2cc(O)cc(O)c12` [Compound 1, apigenin], the inhibition at 100 µM at AChE [1] and on BuChE [2] (at 100 µM) was more than 50% each time.
Consider `COc1cc(/C=C/C(=O)OC[C@H]2O[C@H](O[C@]3(COC(=O)/C=C/c4ccc(O)c(OC)c4)O[C@H](COC(=O)/C=C/c4ccc(O)cc4)[C@@H](O)[C@@H]3OC(=O)/C=C/c3ccc(O)cc3)[C@H](O)[C@@H](O)[C@@H]2O)ccc1O` [Compound 32, lapathoside A], for which the IC50 is 30.6 ± 4.7 µM at AChE [1] and 2.7 ± 1.7 µM against BuChE [2]. For the same compound, the inhibition at 100 µM on AChE [1] (at 100 µM) was more than 60%. The results for the Ki at AChE [3] and on BuChE [4] were approximately 34.4 µM and approximately 1.8 µM, respectively. For the same compound, the “AChE Inhibition type” value on AChE [3] was “non-competitive inhibitors”. Besides, the “BuChE Inhibition type” value on BuChE [4] is on record as “Competitive”.
`COc1cc(/C=C/C(=O)OC[C@H]2O[C@@](COC(=O)/C=C/c3ccc(O)c(OC)c3)(O[C@H]3O[C@H](COC(=O)/C=C/c4ccc(O)c(OC)c4)[C@@H](O)[C@H](O)[C@H]3O)[C@@H](OC(=O)/C=C/c3ccc(O)cc3)[C@@H]2O)ccc1O` [Compound 30, lapathoside B] returned an IC50 on AChE [1] of more than 100 µM. Moreover, on BuChE [2], the half-maximal inhibitory concentration (IC50) was 10.9 ± 4.9 µM. At BuChE [4], the Ki was approximately 12.1 µM and the “BuChE Inhibition type” value is on record as “Competitive”.
As to `O=c1c(O[C@@H]2O[C@H](CO)[C@@H](O)[C@H](O)[C@H]2O)c(-c2ccc(O)cc2)oc2cc(O)cc(O)c12` [Compound 5, astragalin], the inhibition at 100 µM at AChE [1] and on BuChE [2] was more than 50% each time.
smilaside G [Compound 34] returned a half-inhibitory concentration (IC50) against AChE [1] of more than 100 µM. The 50% inhibitory concentration (IC50) on BuChE [2] is 17.1 ± 3.4 µM. In addition, on BuChE [4], the Ki was 17.5 µM and ~17.5 µM; the “BuChE Inhibition type” value is given as “Competitive”.
The compound smilaside J [Compound 33] showed an IC50 against AChE [1] of 56 ± 2.4 µM. Moreover, on BuChE [2], the IC50 was determined as 10.1 ± 4.6 µM. In addition, on BuChE [4], the Ki was approximately 8.5 µM and the “BuChE Inhibition type” value is on record as “Competitive”.
Take `COc1cc(/C=C/C(=O)OC[C@H]2O[C@H](O[C@]3(COC(=O)/C=C/c4ccc(O)cc4)O[C@H](COC(=O)/C=C/c4ccc(O)cc4)[C@@H](O)[C@@H]3OC(=O)/C=C/c3ccc(O)cc3)[C@H](O)[C@@H](O)[C@@H]2O)ccc1O` [Compound 31, vanicoside B]: the concentration for half-maximal inhibition (IC50) was 32.3 ± 4.7 µM against AChE [1] and 7.5 ± 4.1 µM against BuChE [2]. Besides, the inhibition at 100 µM at AChE [1] (at 100 µM) is more than 60%. Moreover, the “BuChE inhibitory activity relative to Compound 34” value on BuChE [2] (from IC50 values (7.5 vs 17.1 µM)) is recorded as “over 2 fold”. Further, the Ki on AChE [3] is approximately 30 µM; at BuChE [4] it was approximately 3.5 µM. On AChE [3], the “AChE Inhibition type” value is on record as “non-competitive inhibitors”. For the same compound, the “BuChE Inhibition type” value at BuChE [4] is “Competitive”.
